The values below are quoted from earlier work in publication PMC4333608 (Chemical Science, 2014).

The target in the data set is T1, São Paulo metallo-β-lactamase-1 (SPM-1) (Pseudomonas aeruginosa, UniProt Q8G9Q0).
T1 sequence (Q8G9Q0 29-276): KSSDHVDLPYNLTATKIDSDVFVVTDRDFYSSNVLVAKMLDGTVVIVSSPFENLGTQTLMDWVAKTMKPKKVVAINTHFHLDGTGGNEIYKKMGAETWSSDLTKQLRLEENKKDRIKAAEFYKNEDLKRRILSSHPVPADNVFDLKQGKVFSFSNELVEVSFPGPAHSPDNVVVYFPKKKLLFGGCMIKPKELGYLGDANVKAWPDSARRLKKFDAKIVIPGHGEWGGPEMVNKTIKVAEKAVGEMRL
In words: enzyme inhibition IC50. It is filed as biochemical.

Structures are written as SMILES.

For orientation: IC50 means the point on the concentration scale where inhibition reaches its midpoint. For the compound `O=C(O)c1cc(CS)cc(CS)c1` [3,5-bis(mercaptomethyl)benzoic acid], the concentration for half-maximal inhibition (IC50) was 700 nM.
